Test results as given in US11225505B2, “Antimicrobial polymyxin derivative compounds” (MONASH UNIVERSITY, priority 2015, dated 2022).
In brackets after ≈: the same amount, converted by molar mass. Where a SMILES comes first, the peptide text is derived from it. Bridges are numbered along the chain shown (N, C = ends). [ ]: non-standard residue; d: D form. The star is where a group is joined. X1 = O=C(c1ncc(Cl)cc1Cl)*; Dab = NCC[C@H](N)C(=O)O; Abu = CC[C@H](N)C(=O)O; Dap = NC[C@H](N)C(=O)O

Experiments:
Assay type in all cases: cell-based
[1] = system: Acinetobacter baumannii FADDI-AB030; assay: microbe, parasite or virus in culture; conditions: FADDI-AB030
How it was run: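 Lipopeptide TFA salts tested against the multidrug-resistant clinical isolate by CLSI (M100-S24) broth microdilution in cation-adjusted Mueller-Hinton broth, with polymyxin B sulphate as control; MIC read.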

[2] = system: Klebsiella pneumoniae FADDI-KP032; conditions: FADDI-KP032
How it was run: (§1)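 In cation-adjusted Mueller-Hinton broth, each lipopeptide (TFA salt) was titrated against the bacteria by microdilution and the minimum inhibitory concentration recorded per CLSI M100-S24; polymyxin B sulphate ran in parallel.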

[3] = system: Acinetobacter baumannii FADDI-AB034; conditions: FADDI-AB034
How it was run: as §1

[4] = system: Klebsiella pneumoniae Kp BM1; conditions: Kp BM1
How it was run: (§2)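 Broth microdilution, CAMHB, per CLSI M100-S24; lipopeptides as TFA salts; polymyxin B sulphate control. Read-out: MIC. Strains are polymyxin-susceptible; PA022 and AB034 are MDR clinical isolates.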

[5] = system: Pseudomonas aeruginosa FADDI-PA022; conditions: FADDI-PA022
How it was run: as §1

[6] = system: Enterobacter cloacae FADDI-EC001; conditions: FADDI-EC001
How it was run: as §2

[7] = system: Pseudomonas aeruginosa FADDI-PA01; conditions: FADDI-
How it was run: as §1

[8] = system: Pseudomonas aeruginosa FADDI-PA038; conditions: FADDI-PA038
How it was run: as §1

[9] = system: Klebsiella pneumoniae FADDI-KP022; conditions: FADDI-KP022
How it was run: as §1

[10] = system: Enterobacter cloacae FADDI-EC003; conditions: FADDI-EC003
How it was run: as §1

[11] = system: Pseudomonas aeruginosa ATCC 27853; conditions: ATCC 27853
How it was run: as §1

[12] = system: Enterobacter cloacae FADDI-EC006; conditions: FADDI-EC006
How it was run: as §1

[13] = system: Acinetobacter baumannii ATCC 17978; conditions: ATCC 17978
How it was run: as §1

CC[C@@H]1NC(=O)[C@@H](CC(C)C)NC(=O)[C@H](CCN)NC(=O)[C@@H](NC(=O)[C@H](CN)NC(=O)[C@@H](NC(=O)[C@H](CCN)NC(=O)c2ncc(Cl)cc2Cl)[C@@H](C)O)CCNC(=O)[C@H]([C@@H](C)O)NC(=O)[C@H](CCN)NC(=O)[C@H](CCN)NC1=O [Compound 1] (X1-[Dab]T[Dap][Dab][Dab][dL][Abu][Dab][Dab]T; lactam 4-C)
Minimum inhibitory concentration [1]: 1 mg/L (≈ 0.861 µM) | Minimum inhibitory concentration [2]: 0.5 mg/L (≈ 0.431 µM) | Minimum inhibitory concentration [3]: 2 mg/L (≈ 1.72 µM) | Minimum inhibitory concentration [4]: 0.25 mg/L (≈ 0.215 µM) | Minimum inhibitory concentration [5]: 1 mg/L (≈ 0.861 µM) | Minimum inhibitory concentration [6]: <0.125 mg/L | Minimum inhibitory concentration [7]: 0.5 mg/L (≈ 0.431 µM) | Minimum inhibitory concentration [8]: 1 mg/L (≈ 0.861 µM) | Minimum inhibitory concentration [9]: <0.125 mg/L | Minimum inhibitory concentration [10]: 2 mg/L (≈ 1.72 µM) | Minimum inhibitory concentration [11]: 0.5 mg/L (≈ 0.431 µM) | Minimum inhibitory concentration [12]: 0.5 mg/L (≈ 0.431 µM) | Minimum inhibitory concentration [13]: 2 mg/L (≈ 1.72 µM)
